Measurements as given in ChEMBL document CHEMBL5532680, “Identification of a Sonically Activated Degrader of Methionine Adenosyltransferase 2A by an in Silico Approach Assisted with the Hole-Electron Analysis” (J Med Chem, 2024).
Activity calls are given as the source filed them. No cut-off for these calls is given here.

Legend:
[1] = Toxicity in BALB/c mouse xenografted with human HCT-116 cells assessed as spleen damage at 100 mg/kg, po by H and E staining based assay; format: organism-based; conditions: in vivo
[2] = Toxicity in BALB/c mouse xenografted with human HCT-116 cells assessed as lung damage at 10 mg/kg, po by H and E staining based assay; format: organism-based; conditions: in vivo
[3] = Toxicity in BALB/c mouse xenografted with human HCT-116 cells assessed as liver tissue rupture at 50 mg/kg, po by H and E staining based assay; format: organism-based; conditions: in vivo
HCT-116 [4] = test: Antitumor activity against […] knocked out human HCT-116 cells xenografted in BALB/c mouse assessed as reduction in tumor weight at 10 mg/kg, po administered once a day followed by 4 mins sonication post 6 hrs of compound administration and measured for 3 weeks; format: functional, organism-based
[5] = Toxicity in BALB/c mouse xenografted with human HCT-116 cells assessed as lung damage at 100 mg/kg, po by H and E staining based assay; format: organism-based; conditions: in vivo
[6] = AUC(0 to 24 hrs) in BALB/c mouse at 10 mg/kg, po measured upto 24 hrs by LC-MS/MS analysis; format: ADME, organism-based; conditions: in vivo
[7] = Cmax in BALB/c mouse at 10 mg/kg, po measured upto 24 hrs by LC-MS/MS analysis; format: ADME, organism-based; conditions: in vivo
HCT-116 [8] = test: Antiproliferative activity against MTAP knocked out human HCT-116 cells incubated for 5 days by MTT method relative to control; format: functional; conditions: time 5 day
HCT-116 [9] = test: Antitumor activity against […] knocked out human HCT-116 cells xenografted in BALB/c mouse assessed as tumor growth inhibition at 50 mg/kg, po administered once a day for 6 hrs and measured after 3 weeks; format: functional; conditions: HCT-116, 504 h, read-out: TGI
[10] = Toxicity in BALB/c mouse xenografted with human HCT-116 cells assessed as body weight loss at 10 mg/kg, po administered once a day followed by 4 mins sonication post 6 hrs of compound administration and measured for 3 weeks; format: organism-based; conditions: in vivo, 504 h
[11] = Cmax in ICR mouse at 10 mg/kg, po measured upto 24 hrs by LC-MS/MS analysis; format: ADME, organism-based; conditions: in vivo
[12] = molecular target: T1, S-adenosylmethionine synthase isoform type-2 (Homo sapiens, UniProt P31153); test: Induction of MAT2A degradation in human HCT-116 cells assessed as degradation maximum at higher than 1 uM preincubated for 4 hrs followed by 1.0 MHz, 0.8W/cm2 ultrasound treatment for 0.5 mins by Western blotting assay relative to control; format: cell-based; conditions: time 240.5 min
Target sequence in this assay (P31153 whole entry, looked up, canonical isoform): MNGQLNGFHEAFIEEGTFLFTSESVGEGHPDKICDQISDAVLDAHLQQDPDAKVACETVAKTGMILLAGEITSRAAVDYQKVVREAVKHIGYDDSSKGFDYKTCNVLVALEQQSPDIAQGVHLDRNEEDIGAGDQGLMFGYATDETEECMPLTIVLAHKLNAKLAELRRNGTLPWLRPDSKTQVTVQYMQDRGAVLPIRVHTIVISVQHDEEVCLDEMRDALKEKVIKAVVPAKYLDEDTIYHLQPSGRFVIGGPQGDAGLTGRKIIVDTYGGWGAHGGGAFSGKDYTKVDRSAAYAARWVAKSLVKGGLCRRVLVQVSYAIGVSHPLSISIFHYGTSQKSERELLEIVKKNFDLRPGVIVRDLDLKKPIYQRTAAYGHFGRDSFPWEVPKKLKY

HCT-116 [13] = test: Antitumor activity against […] knocked out human HCT-116 cells xenografted in BALB/c mouse assessed as tumor growth inhibition at 10 mg/kg, po administered once a day followed by 4 mins sonication post 6 hrs of compound administration and measured for 3 weeks; format: functional; conditions: HCT-116, 504 h, read-out: TGI
[14] = AUC in ICR mouse at 10 mg/kg, po measured upto 24 hrs by LC-MS/MS analysis; format: ADME, organism-based; conditions: in vivo
Cytochrome P450 1A2 = molecular target: T2, Cytochrome P450 1A2 (Homo sapiens, UniProt P05177); test: Inhibition of CYP1A2 (unknown origin); format: ADME
T2 sequence (P05177 whole entry): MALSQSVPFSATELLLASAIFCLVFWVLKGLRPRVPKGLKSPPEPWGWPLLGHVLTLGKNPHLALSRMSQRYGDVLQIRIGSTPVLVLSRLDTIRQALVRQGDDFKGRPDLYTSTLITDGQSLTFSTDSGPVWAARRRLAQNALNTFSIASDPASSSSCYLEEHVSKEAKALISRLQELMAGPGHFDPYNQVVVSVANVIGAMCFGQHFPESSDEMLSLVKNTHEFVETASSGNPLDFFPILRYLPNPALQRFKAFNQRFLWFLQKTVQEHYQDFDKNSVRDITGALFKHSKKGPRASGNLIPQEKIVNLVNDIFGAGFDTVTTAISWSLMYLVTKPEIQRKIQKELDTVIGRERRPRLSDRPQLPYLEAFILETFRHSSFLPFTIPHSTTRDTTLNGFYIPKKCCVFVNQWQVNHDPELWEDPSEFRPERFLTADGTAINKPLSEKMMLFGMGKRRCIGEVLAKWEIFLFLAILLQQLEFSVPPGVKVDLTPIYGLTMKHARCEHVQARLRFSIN

[15] = molecular target: T1, S-adenosylmethionine synthase isoform type-2; test: Inhibition of recombinant human MAT2A expressed in baculovirus infected Sf9 cells at grated than 10 nM using L-methione as substrate preincubated for 15 mins followed by substrate addition and measured after 60 mins in presence of ATP by Kinase-Glo luminescent assay; conditions: time 75.0 min
Target sequence in this assay (P31153 whole entry, looked up, canonical isoform): as the sequence (P31153 whole entry, looked up, canonical isoform) above

[16] = Biodistribution in MATP knocked out human HCT-116 cells xenografted in BALB/c mouse assessed as fluorescence intensity in skin at 10 mg/kg, po measured after 24 hrs; format: ADME, organism-based; conditions: in vivo
[17] = Intrinsic clearance in human liver microsomes; format: ADME, Microsome; conditions: read-out: CLH
HCT-116 [18] = test: Induction of apoptosis in human HCT-116 cells assessed as increase in late apoptotic cells at 0.1 uM preincubated for 24 hrs followed by sonication for 4 mins by annexin V-FITC/PI staining based flow cytometry analysis relative to control; format: functional; conditions: time 1444 min, 24.07 h
[19] = Toxicity in BALB/c mouse xenografted with human HCT-116 cells assessed as heart damage at 100 mg/kg, po by H and E staining based assay; format: organism-based; conditions: in vivo
[20] = Drug metabolism in BALB/c mouse blood after 24 hrs; format: ADME, tissue-based
HCT-116 [21] = test: Antiproliferative activity against MTAP knocked out human HCT-116 cells incubated for 5 days by MTT method; format: functional, cell-based; conditions: HCT-116, 120 h
[22] = Toxicity in BALB/c mouse xenografted with human HCT-116 cells assessed as inflammatory cells infiltration at 50 mg/kg, po by H and E staining based assay; format: organism-based; conditions: in vivo
HCT-116 [23] = test: Antitumor activity against […] knocked out human HCT-116 cells xenografted in BALB/c mouse assessed as tumor growth inhibition at 10 mg/kg, po administered once a day for 6 hrs and measured after 3 weeks; format: functional; conditions: HCT-116, 504 h, read-out: TGI
[24] = Inhibition of uridine glucuronyl transferase (unknown origin); set-up: species or system Homo sapiens
[25] = Biodistribution in MATP knocked out human HCT-116 cells xenografted in BALB/c mouse assessed as fluorescence intensity in spleen at 10 mg/kg, po measured after 24 hrs; format: ADME, organism-based; conditions: in vivo
HCT-116 [26] = test: Antiproliferative activity against wild type human HCT-116 cells assessed as cell viability at 10 uM under 4 mins sonication; format: functional; conditions: HCT-116, 4 min, read-out: Activity
[27] = Volume of distribution at steady state in ICR mouse at 1 mg/kg, iv measured upto 24 hrs by LC-MS/MS analysis; format: ADME, organism-based; conditions: in vivo, read-out: Vdss
[28] = molecular target: T1, S-adenosylmethionine synthase isoform type-2; test: Induction of MAT2A degradation in human HCT-116 cells preincubated for 4 hrs followed by 1.0 MHz, 0.8W/cm2 ultrasound treatment for 0.5 mins by Western blotting assay; format: cell-based
Target sequence in this assay (P31153 whole entry, canonical isoform): as the sequence (P31153 whole entry, looked up, canonical isoform) above

[29] = molecular target: T1, S-adenosylmethionine synthase isoform type-2; test: Induction of MAT2A degradation in human HCT-116 cells assessed as MAT2A level at 0.1 uM preincubated for 4 hrs followed by 1.0 MHz, 0.8W/cm2 ultrasound treatment for 4 mins by Western blotting assay; format: cell-based; conditions: time 244.0 min
Target sequence in this assay (P31153 whole entry, looked up, canonical isoform): as the sequence (P31153 whole entry, looked up, canonical isoform) above

AUC [6]: 9714 ng·h/mL
Cmax [7]: 1380 ng/mL
Cmax [11]: 1380 ng/mL
Emax [12]: 76%
AUC at 24 h [14]: 9710 ng·h/mL
IC50 (Cytochrome P450 1A2): > 50000 nM
inhibition [15]: Active
Drug uptake [16]: Active
CLint scaled [17]: 9.6 mL/min/kg
Drug metabolism [20]: Metabolite_Detected
IC50 (HCT-116 [21]): 350 nM
IC50 [24]: 800 nM
Drug uptake [25]: Not Active
Vd [27]: 3.47 L/kg
EC50 [28]: 360 nM
Activity [29]: 13%
SMILES: CCOc1ncc2cc(-c3ccc4c(c3)N3CCCC3CO4)c(=O)n(-c3ccc(OC(F)F)cc3)c2n1 (stereo not given)
Activity [1]: Non-Toxic
Activity [2]: Non-Toxic
Activity [3]: Toxic
Activity (HCT-116 [4]): Active
Activity [5]: Non-Toxic
Activity (HCT-116 [8]): 92%
inhibition in vivo at 50 mg/kg (HCT-116 [9]): 93.5%
Activity [10]: Non-Toxic
inhibition in vivo at 10 mg/kg (HCT-116 [13]): 103%
Activity (HCT-116 [18]): 9%
Activity [19]: Non-Toxic
Activity [22]: Toxic
inhibition in vivo at 10 mg/kg (HCT-116 [23]): 15.6%
viability at 10 µM (HCT-116 [26]): 77%
